Results published in US20110065714A1, “SUBSTITUTED QUINAZOLINES” (Shire LLC, priority 2008, published 2011).

Assays:
[1] = system: human phosphodiesterase III (PDE III); experiment: PDE III inhibition; type: biochemical; settings: more potent than anagrelide
[2] = pharmacokinetics of anagrelide and its metabolite in patients; type: in vivo, human; settings: typical exposures, greater than anagrelide
[3] = system: human megakaryocytopoiesis; settings: cited from earlier work
[4] = human, in vivo; cited from earlier work
[5] = molecular target: human phosphodiesterase III (PDE III); settings: cited from earlier work
[6] = system: erythroid or myelomonocytic differentiation; settings: stimulated by erythropoietin or granulocyte-macrophage colony-stimulating factor; cited from earlier work

Row | SMILES | potency as PDE III inhibitor relative to anagrelide [1] | exposure in vivo relative to parent drug [2] | potency in inhibition of megakaryocytopoiesis relative to parent drug ([3]; compared with anagrelide) | typical half-life [4] | IC50 ([3]; in vitro, TPO-induced, read-out: estimated IC50 for inhibition of TPO-induced megakaryocytopoiesis) | IC50 [5] | effect on erythroid or myelomonocytic differentiation [6] | first pass effect [4]
1 | O=C1NC2=Nc3ccc(Cl)c(Cl)c3CN2C1O (stereo not shown) [3-hydroxyanagrelide] | over 40 fold | 2-3 fold | no more potent than the parent drug | 2.5 h |  |  |  | 
2 | O=C1CN2Cc3c(ccc(Cl)c3Cl)N=C2N1 [Anagrelide, 6,7-dichloro-1,5-dihydroimidazo[2,1-b]-quinazolin-2(3H)-one] |  |  |  | 1.5 h | ~26 nM | ~29 nM | does not affect | > 50%
3 | Cc1[nH]c(=O)c(C#N)cc1-c1ccncc1 [milrinone] |  |  |  |  |  | 170 to 350 nM |  | 
